The text below walks through data of patent US20240417405A1, “Substituted Spiro Derivatives” (Janssen Pharmaceutica NV, priority 2021, published 2024).

Test [1] deals with T1, menin/MLL (terbium chelate-labeled menin, FITC-MBM1 peptide) (Homo sapiens, UniProt O00255, T541A).
T1 construct: Menin (a.a 1-610-6xhis tag)
T1 sequence (O00255 with tags, fused parts or gaps T541A): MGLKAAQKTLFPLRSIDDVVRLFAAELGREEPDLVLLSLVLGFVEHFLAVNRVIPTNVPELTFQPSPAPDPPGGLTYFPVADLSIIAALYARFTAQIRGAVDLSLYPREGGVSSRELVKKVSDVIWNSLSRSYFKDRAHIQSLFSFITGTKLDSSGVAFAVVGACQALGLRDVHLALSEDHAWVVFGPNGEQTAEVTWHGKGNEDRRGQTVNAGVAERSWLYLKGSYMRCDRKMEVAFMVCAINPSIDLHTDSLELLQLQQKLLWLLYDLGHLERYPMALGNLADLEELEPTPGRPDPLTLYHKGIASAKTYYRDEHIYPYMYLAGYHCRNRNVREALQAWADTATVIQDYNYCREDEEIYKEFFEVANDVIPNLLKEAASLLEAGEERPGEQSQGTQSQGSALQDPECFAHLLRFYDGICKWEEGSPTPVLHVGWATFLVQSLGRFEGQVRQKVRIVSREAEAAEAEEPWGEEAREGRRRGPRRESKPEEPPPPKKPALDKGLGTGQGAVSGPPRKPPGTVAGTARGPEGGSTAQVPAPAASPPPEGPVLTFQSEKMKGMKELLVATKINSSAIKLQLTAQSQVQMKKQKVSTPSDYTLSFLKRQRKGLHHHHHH
The test is described as follows: Menin/MLL homogenous time-resolved fluorescence (HTRF) assay. It counts as binding. The conditions noted are these: 30 min incubation. The essentials: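 Compounds were preincubated 30 min at ambient temperature with 200 pM terbium-labeled menin (aa 1-610, His-tagged) in Tris pH 7.5 buffer with DTT and Pluronic, then 75 nM FITC-MBM1 peptide added for 15 min. HTRF ratio 520/490 nm gave % inhibition; IC50 from four-parameter fit, floor 0.1 nM.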

Test [2] deals with MOLM14 cells. The test is described as follows: Proliferation assay, spheroid-like growth, MOLM14 (MLL-AF9 rearranged). It counts as cell-based, human. The conditions noted are these: Homo sapiens, MOLM-14, 192 h, 8 days, confluence as measure of spheroid size, read-out: spheroid assay_OneTime MOLM14 IC50. The essentials: (§1)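 IC50 derived from a variable-slope dose-response fit of percent confluence change, with DMSO-treated cells as high control and high-dose reference compound as low control. Spheroid-like growth of MOLM14 (200 cells/well) or KO-52 (300 cells/well) in ultra-low attachment plates, 8 days, 37° C, 5% CO2, DMSO normalised to 0.3%, imaged at day 8.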

Test [3] deals with KO-52 cells. As to the kind of experiment: Proliferation assay, spheroid-like growth, KO-52 (MLL wildtype control cell line). It counts as cell-based, human. The settings on record: Homo sapiens, 192 h, KO-52 control cells, 8 days, confluence as measure of spheroid size; read-out: spheroid assay_OneTime KO-52 IC50. An outline of the steps: as §1

Structures are written as SMILES.

With `CC(C)[C@@H]([C@H]1C[C@@H](N2CCC[C@@H](O)C2)C1)N1CC2(CCN(c3ncnnc3Oc3ccc(F)cc3-c3cccnc3C3CC3)C2)C1` (single isomer, unassigned) [Compound 93], the figures for the IC50 in test [1], in test [2] and in test [3] were 0.1 nM, 3 nM and 490 nM, respectively.

Consider `CC(C)[C@H]([C@H]1C[C@@H](N2CC3(COC3)C2)C1)N1CC2(CCN(c3ncnnc3Oc3ccc(F)cc3-c3ncc(C#N)cc3C3CC3)C2)C1` (single isomer, unassigned) [Compound 94], for which the IC50 in test [1] turned out to be 0.1 nM; in test [2] it was 25 nM; in test [3], 3390 nM.

On to `CC(C)[C@H]([C@H]1C[C@H](N2CC3(COC3)C2)C1)N1CC2(CCN(c3ncnnc3Oc3ccc(F)cc3-c3ncc(C#N)cc3C3CC3)C2)C1` (single isomer, unassigned) [Compound 95], for which the IC50 in test [1] was 0.1 nM; in test [2], 210 nM; in test [3], 11400 nM.

With `CC(=O)N1CCN([C@H]2C[C@@H]([C@H](C(C)C)N3CC4(CCN(c5ncnnc5Oc5ccc(F)cc5-c5ncc(C#N)cc5C5CC5)C4)C3)C2)CC1` (single isomer, unassigned) [Compound 96], the results for the IC50 in test [1], in test [2] and in test [3] were 153 nM, more than 940 nM and more than 15000 nM, respectively.

Take `CC(C)[C@@H]([C@H]1C[C@@H](N2C[C@H]3COC[C@H]3C2)C1)N1CC2(CCN(c3ncnnc3Oc3ccc(F)cc3-c3ncncc3C3CC3)C2)C1` (single isomer, unassigned) [Compound 97]: the results for the IC50 in test [1], in test [2] and in test [3] were 0.1 nM, 3 nM and 310 nM, respectively.

As for `CC(C)[C@@H]([C@H]1C[C@@H](N2CCC(S(C)(=O)=O)CC2)C1)N1CC2(CCN(c3ncnnc3Oc3ccc(F)cc3-c3ncncc3C3CC3)C2)C1` (single isomer, unassigned) [Compound 98], the results for the IC50 in test [1], in test [2] and in test [3] were 0.4 nM, 58 nM and 4350 nM, respectively.

For `CC(C)[C@@H]([C@H]1C[C@@H](N2CC[C@](C)(O)C2)C1)N1CC2(CCN(c3ncnnc3Oc3ccc(F)cc3-c3ncncc3C3CC3)C2)C1` (single isomer, unassigned) [Compound 99], the figures for the IC50 in test [1], in test [2] and in test [3] were 0.1 nM, 2 nM and 2000 nM, respectively.

Turning to `CC(C)[C@@H]([C@H]1C[C@@H](N2CCC(C(=O)N(C)C)CC2)C1)N1CC2(CCN(c3ncnnc3Oc3ccc(F)cc3-c3ncncc3C3CC3)C2)C1` (single isomer, unassigned) [Compound 100], the IC50 came out at 0.1 nM in test [1], 33 nM in test [2] and 9810 nM in test [3].

`CC(C)[C@@H]([C@H]1C[C@@H](N2CC3(CCO3)C2)C1)N1CC2(CCN(c3ncnnc3Oc3ccc(F)cc3-c3ncncc3C3CC3)C2)C1` (single isomer, unassigned) [Compound 101]: the IC50 in test [1] worked out at 0.1 nM; in test [2], 10 nM; in test [3], 1070 nM.

In the case of `CC(C)[C@@H]([C@H]1C[C@@H](N2CC3(CCO3)C2)C1)N1CC2(CCN(c3ncnnc3Oc3ccc(F)cc3-c3cnncc3C3CC3)C2)C1` (single isomer, unassigned) [Compound 102], the IC50 worked out at 0.1 nM in test [1], 12 nM in test [2] and 8470 nM in test [3].

In the case of `CC(C)[C@@H]([C@H]1C[C@H](N2CC3(CCO3)C2)C1)N1CC2(CCN(c3ncnnc3Oc3ccc(F)cc3-c3cnncc3C3CC3)C2)C1` (single isomer, unassigned) [Compound 103], the IC50 came out at 0.1 nM in test [1], 100 nM in test [2] and 12200 nM in test [3].

Regarding `CC(=O)N1CCN([C@H]2C[C@@H]([C@H](C(C)C)N3CC4(CCN(c5ncnnc5Oc5ccc(F)cc5-c5cnncc5C5CC5)C4)C3)C2)CC1` (single isomer, unassigned) [Compound 104], the figures for the concentration for half-maximal inhibition (IC50) in test [1], in test [2] and in test [3] were 0.2 nM, 73 nM and 11800 nM, respectively.

As for `CC(C)[C@@H]([C@H]1C[C@@H](N2CC3(COC3)C2)C1)N1CC2(CCN(c3ncnnc3Oc3ccc(F)cc3-c3cnncc3C3CC3)C2)C1` (single isomer, unassigned) [Compound 106], the IC50 in test [1] is 0.1 nM; in test [2], 11 nM; in test [3], 4990 nM.

Consider `CC(C)[C@@H]([C@H]1C[C@H](N2CC3(COC3)C2)C1)N1CC2(CCN(c3ncnnc3Oc3ccc(F)cc3-c3cnncc3C3CC3)C2)C1` (single isomer, unassigned) [Compound 107], for which the IC50 in test [1] was 0.1 nM; in test [2], 76 nM; in test [3], more than 15000 nM.

Take `CO[C@H]1CCN([C@H]2C[C@@H]([C@H](C(C)C)N3CC4(CCN(c5ncnnc5Oc5ccc(F)cc5-c5cnncc5C5CC5)C4)C3)C2)C1` (single isomer, unassigned) [Compound 108]: the IC50 in test [1] worked out at 0.2 nM; in test [2], 1 nM; in test [3], 2650 nM.

On to `CO[C@H]1CCN([C@H]2C[C@H]([C@H](C(C)C)N3CC4(CCN(c5ncnnc5Oc5ccc(F)cc5-c5cnncc5C5CC5)C4)C3)C2)C1` (single isomer, unassigned) [Compound 109], for which the half-maximal inhibitory concentration (IC50) in test [1] was 0.1 nM; in test [2] it was 53 nM; in test [3] it was more than 15000 nM.

On to `CC(C)[C@@H]([C@H]1C[C@@H](N2CC[C@@H](C(=O)N(C)C)C2)C1)N1CC2(CCN(c3ncnnc3Oc3ccc(F)cc3-c3cnncc3C3CC3)C2)C1` (single isomer, unassigned) [Compound 110], for which the IC50 in test [1] amounted to 0.1 nM; in test [2], 12 nM; in test [3] it was 6840 nM.

Regarding `CC(C)[C@@H]([C@H]1C[C@H](N2CC[C@@H](C(=O)N(C)C)C2)C1)N1CC2(CCN(c3ncnnc3Oc3ccc(F)cc3-c3cnncc3C3CC3)C2)C1` (single isomer, unassigned) [Compound 111], the IC50 was 0.2 nM in test [1], 120 nM in test [2] and more than 15000 nM in test [3].

With `CC(C)[C@@H]([C@H]1C[C@@H](N2CC[C@](C)(O)C2)C1)N1CC2(CCN(c3ncnnc3Oc3ccc(F)cc3-c3cnncc3C3CC3)C2)C1` (single isomer, unassigned) [Compound 112], the IC50 came to 0.1 nM in test [1], 6 nM in test [2] and 10100 nM in test [3].

On to `CC(C)[C@@H]([C@H]1C[C@H](N2CC[C@](C)(O)C2)C1)N1CC2(CCN(c3ncnnc3Oc3ccc(F)cc3-c3cnncc3C3CC3)C2)C1` (single isomer, unassigned) [Compound 113], for which the results for the IC50 in test [1], in test [2] and in test [3] were 0.2 nM, 200 nM and more than 15000 nM, respectively.

On to `CC(C)[C@@H]([C@H]1C[C@@H](N2CC[C@@](C)(O)C2)C1)N1CC2(CCN(c3ncnnc3Oc3ccc(F)cc3-c3cnncc3C3CC3)C2)C1` (single isomer, unassigned) [Compound 114], for which the figures for the IC50 in test [1], in test [2] and in test [3] were 0.1 nM, 8 nM and 14200 nM, respectively.

Take `CC(C)[C@@H]([C@H]1C[C@H](N2CC[C@@](C)(O)C2)C1)N1CC2(CCN(c3ncnnc3Oc3ccc(F)cc3-c3cnncc3C3CC3)C2)C1` (single isomer, unassigned) [Compound 115]: the IC50 was 0.2 nM in test [1], 430 nM in test [2] and more than 15000 nM in test [3].

With `CC(C)[C@@H]([C@H]1C[C@@H](N2CC[C@H](C(=O)N(C)C)C2)C1)N1CC2(CCN(c3ncnnc3Oc3ccc(F)cc3-c3cnncc3C3CC3)C2)C1` (single isomer, unassigned) [Compound 116], the values for the IC50 in test [1], in test [2] and in test [3] were 0.1 nM, 7 nM and 8890 nM, respectively.

For the molecule `CC(C)[C@@H]([C@H]1C[C@H](N2CC[C@H](C(=O)N(C)C)C2)C1)N1CC2(CCN(c3ncnnc3Oc3ccc(F)cc3-c3cnncc3C3CC3)C2)C1` (single isomer, unassigned) [Compound 117], the figures for the 50% inhibitory concentration (IC50) in test [1], in test [2] and in test [3] were 0.1 nM, 170 nM and more than 15000 nM, respectively.

For `CC(C)[C@H]([C@H]1C[C@@H](N2CC3(CCO3)C2)C1)N1CC2(CCN(c3ncnnc3Oc3ccc(F)cc3-c3cncnc3C3CC3)C2)C1` (single isomer, unassigned) [Compound 145], the figures for the 50% inhibitory concentration (IC50) in test [1], in test [2] and in test [3] were 0.2 nM, 6 nM and 3580 nM, respectively.
